{
  "source": "patent US20180125898A1",
  "about": "“MARINE LECITHIN PREPARATIONS WITH ENHANCED OXIDATION RESISTANCE” (AKER BIOMARINE ANTARCTIC AS, priority 2014, published 2018)",
  "assay": "Gastric model: incubation in simulated gastric fluid (SGF), LOOH (FOX assay) and MDA, oxidation resistance score",
  "format": "physicochemical",
  "details": "conventional krill oil with high TMAO, three concentrations of Astaxanthin (increased more than 10 fold), 180 minutes",
  "experimental": "Hydroperoxide level was tested by FOX analysis. Measurements were conducted at 562 nm, the absorbance of the Ferric-Xylenol Orange Complex. (Gay 1999).\nMalondialdehyde (MDA) level was tested by modified TBARS test. The thiobarbituric acid-MDA adduct was quantified by HPLC (Fenaille 2001) or spectrophotometer.\nMarine lecithin preparations according to the invention and conventional marine lecithins were incubated while shaken in simulated gastric fluid (SGF) which contains 2 mg/ml NaCl, 3.2 mg/ml HCl 37%, and 7 mg/ml Pepsine and with 200 μM Ascorbic acid and 50 μM FeCl3 as oxidation catalysts, at 37° C. for 180 min. The final concentration of the oils was 10 mg/ml. Peroxidation markers hydroperoxide (LOOH, by Ferric-Xylenol Orange Complex—FOX assay) and malondialdehyde (MDA-TBA2 HPLC analysis) were analyzed following 180 minutes of incubation in the gastric model.\nIn order to rank the oils according to their resistance to oxidation in gastric model, a score scale was developed. […]\nConventional krill oil, containing high concentration of TMAO, was enriched with three concentrations of Astaxanthin and incubated in simulated gastric fluid (SGF) as described in Example 3. Hydroperoxide as peroxidation marker (LOOH, by Ferric-Xylenol Orange Complex—FOX assay—see method above) was analyzed following 180 minutes. […]",
  "data": [
    {"smiles": "CC1=C(/C=C/C(C)=C/C=C/C(C)=C/C=C/C=C(C)/C=C/C=C(C)/C=C/C2=C(C)C(=O)[C@@H](O)CC2(C)C)C(C)(C)C[C@H](O)C1=O", "note": "[Astaxanthin]", "values": [
      {"measurement": "change in LOOH levels by Astaxanthin enrichment", "result": "only minimal change in LOOH levels"}
    ]}
  ]
}
